Activity calls are given as the source filed them.

For experiment [1], the target named is T1, Apoptotic protease-activating factor 1 (Homo sapiens, UniProt O14727).
T1 sequence (O14727 whole entry): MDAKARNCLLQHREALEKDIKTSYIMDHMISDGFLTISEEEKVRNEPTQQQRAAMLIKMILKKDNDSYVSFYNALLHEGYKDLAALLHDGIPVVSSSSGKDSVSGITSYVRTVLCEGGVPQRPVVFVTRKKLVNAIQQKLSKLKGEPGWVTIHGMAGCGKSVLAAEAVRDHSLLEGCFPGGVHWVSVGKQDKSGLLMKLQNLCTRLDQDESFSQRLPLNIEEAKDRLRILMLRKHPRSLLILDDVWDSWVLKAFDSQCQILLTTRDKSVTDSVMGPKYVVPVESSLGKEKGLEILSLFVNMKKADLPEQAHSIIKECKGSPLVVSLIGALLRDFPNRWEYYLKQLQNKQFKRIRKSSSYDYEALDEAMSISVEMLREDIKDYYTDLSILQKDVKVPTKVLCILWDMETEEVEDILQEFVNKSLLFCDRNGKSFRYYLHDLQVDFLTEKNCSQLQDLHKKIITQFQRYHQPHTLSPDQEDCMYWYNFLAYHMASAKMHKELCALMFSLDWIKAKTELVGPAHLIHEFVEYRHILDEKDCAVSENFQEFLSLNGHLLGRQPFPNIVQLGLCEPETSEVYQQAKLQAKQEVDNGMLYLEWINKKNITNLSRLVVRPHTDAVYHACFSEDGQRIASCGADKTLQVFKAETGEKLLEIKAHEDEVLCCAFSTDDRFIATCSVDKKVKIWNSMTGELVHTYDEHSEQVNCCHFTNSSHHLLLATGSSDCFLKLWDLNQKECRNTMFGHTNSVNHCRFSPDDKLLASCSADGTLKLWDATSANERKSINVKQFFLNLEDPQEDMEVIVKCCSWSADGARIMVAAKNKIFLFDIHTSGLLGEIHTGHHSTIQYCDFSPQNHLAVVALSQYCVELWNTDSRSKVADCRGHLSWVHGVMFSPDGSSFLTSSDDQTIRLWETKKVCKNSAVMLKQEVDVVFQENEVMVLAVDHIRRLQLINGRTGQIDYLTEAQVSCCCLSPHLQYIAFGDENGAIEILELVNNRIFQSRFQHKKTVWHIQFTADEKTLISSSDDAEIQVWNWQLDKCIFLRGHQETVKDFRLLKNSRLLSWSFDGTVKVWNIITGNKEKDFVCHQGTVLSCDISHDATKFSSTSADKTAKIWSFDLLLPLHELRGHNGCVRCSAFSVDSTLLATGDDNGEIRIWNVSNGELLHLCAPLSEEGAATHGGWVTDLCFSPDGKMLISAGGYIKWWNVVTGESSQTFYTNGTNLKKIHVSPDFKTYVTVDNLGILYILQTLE
The class given is functional.

In experiment [2] the test system is HEK293. In words: cells. The conditions noted are these: Homo sapiens.
A short description of experiment [3]: viability of HCT116 lacking mutant beta-catenin – cell-based, human colon tumor, dose response (AID 1045).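 Note: HCT116 colon tumor cells with beta catenin knocked out; cells exposed to compound for 60 hours.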 The class given is functional.
In experiment [4] the target is Nonstructural protein 1 (Influenza A virus, UniProt Q194T2). In kind it is functional, Influenza A virus (A/California/07/2009(H1N1)).
In experiment [5] the test system is HEK293. As to the kind of experiment: cells. The conditions noted are these: Homo sapiens. The source holds these as a separate data set.
Experiment [6] addresses Large T antigen (Simian virus 40, UniProt P03070). In kind it is functional, Betapolyomavirus macacae.
A short description of experiment [7]: viability of PTEN-deleted HCT116 cells – cell-based, HCT116 PTEN knockout, dose response (AID 1047).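 Note: HCT116 colon tumor cells with PTEN knocked out; cells exposed to compound for 60 hours before readout; potency for loss of cell viability measured by luminescence.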 The class given is functional.
Experiment [8] in a line: Fluorescence-based cell-based high throughput dose response assay for inhibitors of the interaction of nucleotide-binding oligomerization domain containing 2 (NOD2) and the receptor-interacting serine-threonine kinase 2 (RIPK2). The class given is functional. The conditions noted are these: Homo sapiens.
Experiment [9] addresses Fatty acid synthase (Homo sapiens, UniProt P49327). In words: inhibition of human FAS-TE enzyme activity – biochemical, kinetic fluorescence intensity, dose response (AID 624326).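 Note: rate of fluorescence rise from hydrolysis of a fluorogenic O-methyl fluorescein ester substrate.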 In kind it is functional.
Experiment [10] is described as follows: viability loss in THP-1 monocytes – THP-1 cells, cytotoxicity control for Vif-APOBEC3G degradation inhibitor project, dose response (AID 1117359). In kind it is functional. The conditions noted are these: THP-1.
The target in experiment [11] is T2, Heat shock factor protein 1 (Mus musculus, UniProt P38532).
T2 sequence (P38532 whole entry): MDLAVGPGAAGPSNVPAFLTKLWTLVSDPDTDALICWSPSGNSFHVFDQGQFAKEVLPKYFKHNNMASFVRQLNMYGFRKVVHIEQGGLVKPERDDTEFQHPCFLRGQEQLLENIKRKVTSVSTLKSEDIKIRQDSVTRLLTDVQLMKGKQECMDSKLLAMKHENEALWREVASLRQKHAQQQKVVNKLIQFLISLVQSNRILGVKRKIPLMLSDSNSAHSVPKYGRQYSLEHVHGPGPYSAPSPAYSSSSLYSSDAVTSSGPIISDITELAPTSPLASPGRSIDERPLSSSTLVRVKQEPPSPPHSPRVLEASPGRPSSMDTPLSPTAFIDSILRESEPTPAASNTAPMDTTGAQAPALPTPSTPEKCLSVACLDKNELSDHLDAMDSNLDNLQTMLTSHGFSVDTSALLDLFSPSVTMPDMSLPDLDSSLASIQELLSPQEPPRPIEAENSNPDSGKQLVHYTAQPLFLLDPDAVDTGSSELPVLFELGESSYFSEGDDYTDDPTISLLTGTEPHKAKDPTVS
As to the kind of experiment: enhancement of HSF1-driven luciferase signal – cell-based, NIH3T3, luminescence, dose retest, confirmation (AID 435004).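 Note: stress induced by proteasome inhibitor MG132 added 30 min after compound; luciferase reporter driven by HSF1 response element in NIH3T3 cells; actives raise luminescence as potentiators of the MG132 stress response.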 The class given is functional.

A short description of experiment [12]: NIH3T3 cell viability loss – ATP luminescence, mouse fibroblasts, counter-screen, dose response (AID 2010).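 Note: cells exposed to compound for about 90 hours before reading.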 In kind it is functional, cell-based. (The purpose of a counterscreen is to sort out artefacts and off-target activity.)
Experiment [13] in a line: HIV-1 Vif–A3G interaction blockers – biochemical, TR-FRET, GST-Vif 1-94, biotin-A3G peptide, dose response retest, primary screen (AID 1117319).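 Note: TR-FRET signal of purified GST-Vif binding a biotinylated A3G peptide; inhibitors lower the FRET signal by blocking Vif and A3G binding.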 In kind it is functional. On the technique in general: In TR-FRET formats the signal depends on donor and acceptor labels being close together.
The target in experiment [14] is T3, X-box-binding protein 1 (Homo sapiens, UniProt P17861).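 Note: confirmatory dose-response counter-screen serving a CHOP assay.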
T3 sequence (P17861 whole entry): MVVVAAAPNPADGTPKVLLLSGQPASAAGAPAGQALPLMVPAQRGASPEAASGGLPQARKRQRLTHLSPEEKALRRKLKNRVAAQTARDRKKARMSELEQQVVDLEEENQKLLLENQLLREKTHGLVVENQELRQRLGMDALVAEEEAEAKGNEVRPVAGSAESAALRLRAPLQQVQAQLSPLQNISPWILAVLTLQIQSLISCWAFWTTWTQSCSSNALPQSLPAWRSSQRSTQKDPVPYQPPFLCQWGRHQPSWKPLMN
In kind it is functional, Cricetulus griseus.

Experiment [15] deals with BJ. In words: BJ-TERT fibroblast viability loss – cell-based, RAS-independent, luminescence, dose response (AID 1933). The class given is functional. The following applies: Homo sapiens.
The test system of experiment [16] is BJ. As to the kind of experiment: BJ-TERT-LT-ST fibroblast viability loss – cell-based, RAS-independent, luminescence, dose response (AID 1935).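 Note: BJ fibroblasts immortalized with TERT plus LT and ST oncogenes.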 The class given is functional. The conditions noted are these: Homo sapiens.
Experiment [17] concerns the target Heat shock protein HSP 90-alpha (Homo sapiens, UniProt P07900). In kind it is functional, organism-based.

Chain of Large T antigen (P03070 whole entry): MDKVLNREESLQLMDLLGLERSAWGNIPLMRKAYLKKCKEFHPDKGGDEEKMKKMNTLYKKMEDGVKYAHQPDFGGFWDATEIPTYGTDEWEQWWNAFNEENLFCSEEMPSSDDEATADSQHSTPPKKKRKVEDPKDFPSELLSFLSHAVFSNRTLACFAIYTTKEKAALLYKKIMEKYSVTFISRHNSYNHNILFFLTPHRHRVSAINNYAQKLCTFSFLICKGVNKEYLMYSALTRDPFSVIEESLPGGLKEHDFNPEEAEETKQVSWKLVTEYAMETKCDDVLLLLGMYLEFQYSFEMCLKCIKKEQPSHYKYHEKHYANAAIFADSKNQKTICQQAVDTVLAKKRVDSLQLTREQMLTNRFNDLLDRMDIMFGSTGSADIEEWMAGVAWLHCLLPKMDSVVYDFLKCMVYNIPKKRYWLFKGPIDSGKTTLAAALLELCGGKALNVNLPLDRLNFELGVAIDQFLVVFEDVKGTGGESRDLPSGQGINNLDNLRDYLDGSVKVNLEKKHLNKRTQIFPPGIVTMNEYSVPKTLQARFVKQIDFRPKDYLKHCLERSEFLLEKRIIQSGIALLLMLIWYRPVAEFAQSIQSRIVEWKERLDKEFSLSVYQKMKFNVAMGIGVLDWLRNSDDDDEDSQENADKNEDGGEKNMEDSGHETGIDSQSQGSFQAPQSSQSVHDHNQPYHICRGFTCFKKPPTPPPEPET
Chain of Fatty acid synthase (P49327 whole entry): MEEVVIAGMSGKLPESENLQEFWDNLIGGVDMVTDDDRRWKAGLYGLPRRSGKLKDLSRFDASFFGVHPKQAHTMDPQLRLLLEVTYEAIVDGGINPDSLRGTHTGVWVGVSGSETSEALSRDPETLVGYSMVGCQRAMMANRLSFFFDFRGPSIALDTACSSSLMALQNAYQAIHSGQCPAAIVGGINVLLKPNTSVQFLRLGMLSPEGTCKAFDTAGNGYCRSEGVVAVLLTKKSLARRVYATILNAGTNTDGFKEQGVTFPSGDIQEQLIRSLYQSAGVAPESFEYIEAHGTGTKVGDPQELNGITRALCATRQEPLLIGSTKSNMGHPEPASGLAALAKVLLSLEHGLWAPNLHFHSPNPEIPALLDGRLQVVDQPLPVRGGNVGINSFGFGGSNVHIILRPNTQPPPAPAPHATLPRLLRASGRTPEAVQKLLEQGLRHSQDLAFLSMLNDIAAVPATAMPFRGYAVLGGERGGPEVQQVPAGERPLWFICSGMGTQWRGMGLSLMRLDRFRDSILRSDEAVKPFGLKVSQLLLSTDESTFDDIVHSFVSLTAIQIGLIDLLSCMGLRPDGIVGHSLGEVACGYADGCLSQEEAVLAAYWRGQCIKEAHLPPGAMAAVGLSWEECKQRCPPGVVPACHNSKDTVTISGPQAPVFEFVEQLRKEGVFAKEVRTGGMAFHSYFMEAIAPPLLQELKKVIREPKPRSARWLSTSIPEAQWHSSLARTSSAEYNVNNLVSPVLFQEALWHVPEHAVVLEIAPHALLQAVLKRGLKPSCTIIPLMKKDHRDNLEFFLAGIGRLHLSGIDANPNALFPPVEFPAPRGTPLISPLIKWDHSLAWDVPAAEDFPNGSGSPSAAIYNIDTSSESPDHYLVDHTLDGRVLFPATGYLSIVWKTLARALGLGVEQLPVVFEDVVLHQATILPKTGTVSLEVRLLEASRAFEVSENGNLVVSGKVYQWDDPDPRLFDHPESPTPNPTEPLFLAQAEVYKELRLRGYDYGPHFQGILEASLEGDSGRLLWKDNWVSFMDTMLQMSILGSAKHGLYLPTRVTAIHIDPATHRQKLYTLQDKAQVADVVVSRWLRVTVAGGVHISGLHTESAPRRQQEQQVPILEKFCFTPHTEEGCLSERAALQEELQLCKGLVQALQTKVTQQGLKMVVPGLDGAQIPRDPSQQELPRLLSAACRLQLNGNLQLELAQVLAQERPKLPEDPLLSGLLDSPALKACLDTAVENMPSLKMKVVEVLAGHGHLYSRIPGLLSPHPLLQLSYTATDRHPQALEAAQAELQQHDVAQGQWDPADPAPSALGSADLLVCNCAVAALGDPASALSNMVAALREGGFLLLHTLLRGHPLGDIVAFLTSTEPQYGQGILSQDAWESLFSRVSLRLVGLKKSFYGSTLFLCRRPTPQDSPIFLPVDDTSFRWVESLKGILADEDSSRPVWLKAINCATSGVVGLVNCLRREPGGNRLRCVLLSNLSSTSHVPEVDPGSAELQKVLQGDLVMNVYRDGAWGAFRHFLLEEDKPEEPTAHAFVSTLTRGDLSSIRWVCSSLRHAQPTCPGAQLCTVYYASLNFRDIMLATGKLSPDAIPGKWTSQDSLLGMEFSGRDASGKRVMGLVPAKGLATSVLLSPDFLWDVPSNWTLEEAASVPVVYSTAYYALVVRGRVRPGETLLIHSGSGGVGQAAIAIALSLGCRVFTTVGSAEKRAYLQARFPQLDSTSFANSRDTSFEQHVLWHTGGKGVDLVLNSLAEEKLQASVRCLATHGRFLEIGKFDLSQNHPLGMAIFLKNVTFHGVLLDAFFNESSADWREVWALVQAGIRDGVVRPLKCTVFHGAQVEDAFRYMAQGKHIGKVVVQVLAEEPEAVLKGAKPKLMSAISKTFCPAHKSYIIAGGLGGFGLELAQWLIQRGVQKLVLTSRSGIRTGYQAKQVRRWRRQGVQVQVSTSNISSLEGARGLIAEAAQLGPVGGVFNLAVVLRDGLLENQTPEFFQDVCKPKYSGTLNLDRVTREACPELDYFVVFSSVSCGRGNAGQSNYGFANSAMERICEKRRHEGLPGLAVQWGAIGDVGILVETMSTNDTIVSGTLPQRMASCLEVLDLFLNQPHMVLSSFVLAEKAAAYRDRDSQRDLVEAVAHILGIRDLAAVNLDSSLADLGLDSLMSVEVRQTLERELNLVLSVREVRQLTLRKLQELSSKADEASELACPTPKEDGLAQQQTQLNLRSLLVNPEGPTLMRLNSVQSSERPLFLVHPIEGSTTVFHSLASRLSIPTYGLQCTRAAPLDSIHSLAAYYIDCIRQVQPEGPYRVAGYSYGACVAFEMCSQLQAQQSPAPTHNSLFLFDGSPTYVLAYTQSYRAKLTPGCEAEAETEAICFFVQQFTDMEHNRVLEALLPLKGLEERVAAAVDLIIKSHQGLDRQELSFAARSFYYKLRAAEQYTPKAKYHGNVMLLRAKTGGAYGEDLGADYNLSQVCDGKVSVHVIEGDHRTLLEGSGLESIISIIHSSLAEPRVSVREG
Chain of Nonstructural protein 1 (Q194T2 whole entry): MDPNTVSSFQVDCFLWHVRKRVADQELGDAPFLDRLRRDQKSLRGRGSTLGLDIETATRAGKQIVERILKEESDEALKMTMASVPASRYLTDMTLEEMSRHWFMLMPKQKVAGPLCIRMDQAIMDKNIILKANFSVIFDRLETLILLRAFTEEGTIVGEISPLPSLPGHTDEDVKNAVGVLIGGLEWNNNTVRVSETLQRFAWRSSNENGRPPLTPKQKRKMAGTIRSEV

Usually IC50 stands for the point on the concentration scale where inhibition reaches its midpoint. Turning to `O=c1[nH]c(N2CCOCC2)cc2ccccc12`, in [1], the IC50 is 8.83 µM (active).
In general, EC50 refers to the concentration needed to bring the measured effect to its halfway point. By CC50 is commonly meant the concentration giving 50% cytotoxicity. The AC50 is the concentration giving half of the maximal activity seen. Turning to `O=[N+]([O-])c1ccc(Sc2nc3ccccc3o2)c([N+](=O)[O-])c1`, the EC50 in experiment [2] is > 59.6 µM (inactive); in experiment [3] it was 5.57 µM (active); in [5], > 59.6 µM (inactive); in experiment [7], 6.88 µM (active); in experiment [11] it was 11.7 µM (active); in [12], 1.81 µM (active). The EC50 is 3.27 µM (active) in [15] and 5.55 µM (active) in experiment [16]. For the same compound, the IC50 in experiment [4] was 34.2 µM (active); in experiment [6], 84.9 µM (active); in experiment [8] it was 1.92 µM (active); in [9], 10.1 µM (active); in [13], > 100 µM (active). In [10], the CC50 was 2.46 µM (active). The “Absolute IC50 (XBP1)” value in [14] was determined as 10 µM. The AC50 in [17] is 2.22 µM (active).
As for `CCC(COC)Oc1cc(NCc2ccccc2)c2ncn(C(C)C)c2c1` (stereo not drawn), the IC50 in experiment [1] is 16.7 µM (active).

The record behind these values is ChEMBL document CHEMBL1201862, “PubChem BioAssay data set” (2004).
